From patent US20190276389A1, “SYNTHESIS OF ARYL CYCLOHEXANE ESTER DERIVATIVES USEFUL AS SENSATES IN CONSUMER PRODUCTS” (The Procter & Gamble Company, priority 2015, published 2019)

Assays:
[1] = Sensory evaluation of cooling intensity after brushing with dentifrice; format: in vivo; details: avg 7 panelists, dentifrice with 0.001% (10 ppm) coolant
Description: Dentifrices were prepared using conventional methods, such as the protocols described in U.S. Pat. No. 8,747,814, which contained no coolant (SAMPLE A—Crest Cavity Protection) or having a coolant from TABLE 1 (SAMPLE B), in a flavor (wintergreen) at 10 parts per million (ppm).
Sensory evaluation studies of coolant activity were conducted using a methodology patterned after the techniques described in M. C. Meilgaard, et al., Sensory Evaluation Techniques, 4th Ed. (2007). Seven panelists brushed with a dentifrice from TABLE 2, having no coolant (SAMPLE A) or having a coolant from TABLE 1 (SAMPLE B), for two minutes, in a flavor (wintergreen) at 10 parts per million (ppm). After brush expectoration, panelists then rinsed their mouth with 15 ml of an aqueous rinse and expectorated.

human TRPM8 [2] = experiment: TRPM8 Protocol-FLIPR Assay (intracellular Ca2+ in HEK-293 cells stably transfected with human TRPM8); format: cell-based; details: HEK-293 cells stably transfected with human TRPM8, Fluo-4 AM, read-out: TRPM8 EC 50 Value
Description: (§1) Trypsin was inactivated by addition of 8 ml growth medium. Cells were transferred to a 50 ml tube and centrifuged at 850 rpm for 3 minutes to remove medium. After centrifugation, a pellet of cells was formed in the bottom of the tube separating them from the supernatant solution. […] Fluo-4 AM is a fluorescent dye used for quantifying cellular Ca^2+ concentrations in the 100 nM to 1 microM range. At the end of 30 minutes, 45 ml of assay buffer (1×BSS (Hank's Balanced Salt Solution), 20 mM HEPES (4-(2-Hydroxyethyl)-1-piperazineethanesulfonic acid)) was added to wash cells and the resulting mixture was then centrifuged at 850 rpm for 3 minutes to remove excess buffer and Fluo-4 AM calcium indicator.
(§2) The pelleted cells were re-suspended in 10 ml assay buffer and 90 μl aliquots (˜50,000 cells) per well delivered to a 96-well assay plate containing 10 μl of test compounds (1 mM in assay buffer, final concentration 100 μM) or buffer control and incubated at room temperature for 30 minutes. After 30 minutes, a plate was placed into a fluorometric imaging plate reader (FLIPR384 from Molecular Devices, Sunnyvale, Calif.) and basal fluorescence recorded (excitation wave length 488 nm and emission wave length 510 nm). Then 20 μl of […] of TRPM8 agonist WS5 coolant in the assay buffer was added and fluorescence recorded. For determining the direct effect of test compounds on TRPM8, fluorescence was measured immediately after addition of each compound (TABLE 1).

human TRPM8 [3] = target: human TRPM8 (UniProt Q8R4D5); experiment: as above; format: cell-based; details: HEK-293 cells stably transfected with human TRPM8, Fluo-4 AM
Description: as §1, §2

[4] = concentration where the cooling effect could be clearly recognized; cited from earlier work

| Structure (SMILES) | EC50 (human TRPM8 [2]) | other results |
| --- | --- | --- |
| CC(C)[C@@H]1CC[C@@H](C)C[C@H]1C(=O)OC[C@@H](NC(=O)[C@@H](C)N)c1ccccc1.Cl [#1] | 8.08 nM | Cooling Rating (0-90) of Dentifrice ([1]; Time 0 min, wintergreen flavor, 0 = no cooling, 90 = cold as ice): 33.57; Cooling Rating (0-90) of Dentifrice ([1]; Time 15 min): 32.71; Cooling Rating (0-90) of Dentifrice ([1]; Time 30 min): 26.43; Cooling Rating (0-90) of Dentifrice ([1]; Time 60 min): 35.71; Cooling Rating (0-90) of Dentifrice ([1]; Time 120 min): 40.00; Cooling Rating (0-90) of Dentifrice ([1]; Time 180 min): 36.43; Cooling Rating (0-90) of Dentifrice ([1]; Time 240 min): 34.29; Cooling Rating (0-90) of Dentifrice ([1]; Time 300 min): 30.71; Cooling Rating (0-90) of Dentifrice ([1]; Time 360 min): 30.71; Cooling Rating (0-90) of Dentifrice ([1]; Time 420 min): 23.57; Cooling Rating (0-90) of Dentifrice ([1]; Time 480 min): 20.71 |
| CC(C)[C@@H]1CC[C@@H](C)C[C@H]1OC(=O)C[C@@H](NC(=O)CN)c1ccccc1 [#2] | 62 nM |  |
| CC(C)[C@@H]1CC[C@@H](C)C[C@H]1C(=O)OC[C@@H](NC(=O)CNC(=O)OC(C)(C)C)c1ccccc1 [#3] | 23200 nM |  |
| CC(C)[C@@H]1CC[C@@H](C)C[C@H]1C(=O)OC[C@@H](NC(=O)CN)c1ccccc1 [#4] | 64 nM |  |
| CC1CCC(C(C)C)C(OC(=O)C(N)c2ccccc2)C1 (centres unmarked) [#5] | 60200 nM |  |
| CC(C)[C@@H]1CC[C@@H](C)C[C@H]1OC(=O)C[C@@H](NC(=O)OC(C)(C)C)c1ccccc1 [#6] |  | TRPM8 EC 50 Value (human TRPM8 [3]): Too high to measure |
| CC1CCC(C(C)C)C(OC(=O)CC(N)c2ccccc2)C1 (centres unmarked) [#7] | 8000 nM |  |
| CC(C)[C@@H]1CC[C@@H](C)C[C@H]1OC(=O)C[C@@H](NC(=O)CNC(=O)OC(C)(C)C)c1ccccc1 [#8] |  | TRPM8 EC 50 Value (human TRPM8 [3]): Too high to measure |
| CC(C)[C@@H]1CC[C@@H](C)C[C@H]1C(=O)OC[C@@H](OC(=O)CN)c1ccccc1 [#9] | 13 nM |  |
| CC(C)[C@@H]1CC[C@@H](C)C[C@H]1OC(=O)C[C@@H](NC(=O)[C@@H](C)N)c1ccccc1 [#10] | 36.8 nM |  |
| CC(C)[C@@H]1CC[C@@H](C)C[C@H]1C(=O)OC[C@@H](NC(=O)[C@H](C)N)c1ccccc1 [#11] | 343 nM |  |
| CC(C)[C@@H]1CC[C@@H](C)C[C@H]1C(=O)OC[C@@H](O)c1ccccc1 [#12] | 590 nM |  |
| CC(C)[C@H]1CC[C@H](C)C[C@@H]1OC(=O)C[C@@H](NC(=O)CN)c1ccccc1 [#13] | 882 nM |  |
| CC(C)[C@@H]1CC[C@@H](C)C[C@H]1OC(=O)C[C@@H](NC(=O)[C@H](C)N)c1ccccc1 [#14] | 914 nM |  |
| CC(C)[C@@H]1CC[C@@H](C)C[C@H]1OC(=O)CC(NCCN)c1ccccc1 (some centres unmarked) [#15] | 1960 nM |  |
| CC(C)[C@@H]1CC[C@@H](C)C[C@H]1OC(=O)CC(NCc1ccccn1)c1ccccc1 (some centres unmarked) [#16] | 2070 nM |  |
| CC(C)[C@@H]1CC[C@@H](C)C[C@H]1C(=O)OC[C@H](NC(=O)CN)c1ccccc1 [#17] | 2260 nM |  |
| CC(C)[C@@H]1CC[C@@H](C)C[C@@H]1OC(=O)C[C@@H](NC(=O)CN)c1ccccc1 [#18] | 2950 nM |  |
| CC(C)[C@@H]1CC[C@@H](C)C[C@H]1OC(=O)C(Cc1ccccc1)NC(=O)CN (some centres unmarked) [#19] | 4280 nM |  |
| CC(C)[C@@H]1CC[C@@H](C)C[C@H]1C(=O)OC[C@@H](OC(=O)CNC(=O)OC(C)(C)C)c1ccccc1 [#20] | 4470 nM |  |
| CC(C)[C@H]1CC[C@@H](C)C[C@@H]1OC(=O)C[C@@H](NC(=O)CN)c1ccccc1 [#21] | 4960 nM |  |
| CC(C)[C@@H]1CC[C@@H](C)C[C@H]1OC(=O)[C@@H](NC(=O)[C@H](C)N)c1ccccc1 [#22] | 32800 nM |  |
| CC(C)[C@@H]1CC[C@@H](C)C[C@H]1OC(=O)[C@@H](NC(=O)CN)c1ccccc1 [#23] | 34100 nM |  |
| CC(C)[C@@H]1CC[C@@H](C)C[C@H]1OC(=O)CCCCCN [#25] | 9500 nM |  |
| CC(C)[C@@H]1CC[C@@H](C)C[C@H]1C(=O)OC[C@@H](OC(=O)[C@@H]1C[C@H](C)CC[C@H]1C(C)C)c1ccccc1 [#26] | 139000 nM |  |
| CC(C)[C@@H]1CC[C@@H](C)C[C@H]1COC(=O)C(NC(=O)CN)c1ccccc1 (some centres unmarked) [#27] | 145000 nM |  |
| CC(C)[C@@H]1CC[C@@H](C)CC1OC(=O)c1ccccc1NC(=O)CN (some centres unmarked) [#34] | 19000 nM |  |
| CC(C)[C@@H]1CC[C@@H](C)C[C@H]1O [L-menthol] |  | cooling threshold [4]: about 800 ppb |
| CC(C)[C@@H]1CC[C@@H](C)C[C@@H]1O [Sample 1-neomenthol, 1-neomenthol] |  | cooling threshold [4]: about 3,000 ppb |
| CC(C)[C@@H]1CC[C@@H](C)C[C@@H]1O [d-neomenthol] |  | cooling threshold [4]: about 25,000 ppb |
